Measured values taken from paper PMC8750417, “Intracellular Amplifiers of Reactive Oxygen Species Affecting Mitochondria as Radiosensitizers” (Cancers, 2021).

Columns and labels:
[1] = test system: A2780 cells; parameters: method as in PMID 30035345; settings: relative to 4-(N-ferrocenyl-N-benzylaminocarbonyloxymethyl)-phenylboronic acid pinacol ester; cited from earlier work
[2] = Hydrolysis of prodrugs in aqueous neutral solution (HPLC-UV-MS); format: physicochemical; settings: 1 to 1_BA
Experimental: To identify the active form of prodrugs 2a–2d in aqueous neutral buffers, we investigated their stability in the water rich solvent mixture containing triethylammonium acetate buffer (pH 7.0, 1.5 mM) and CH3CN (7/3, v/v). We observed that even freshly prepared solutions of analytically pure samples of 2a–2d (peaks eluted at 10.2–10.7 min) contain hydrolyzed species corresponding to boronic acid derivatives 2a_BA–2d_BA (peaks eluted at 7.1–7.5 min, 7–14% of the area of all peaks) (Figure S43, SI). After 2 h incubation of these samples, the peaks of 2a_BA–2d_BA become major ones (79–87% of the area of all peaks, Figure S43, SI).
Figure S42. High resolution ESI-TOF mass spectrum of HCl salt of drug 4 (4*HCl): upper plot – experimental spectrum; bottom plot – theoretical spectrum.
Determination of crystal structure of prodrug 2a […]
Stock solutions of prodrugs (2a-2d, 3 mM) in DMSO were first prepared. […] After the probes (20 µL) of these solutions were incubated for 0 or 2 h at 37 °C, they were injected to HPLC coupled to UV-visible detector (detection of absorbance at 254 nm) and electrospray mass spectrometric detector (detection of positively charged ions in the m/z range of 300 - 1200) and the analytes were separate d by using gradients of CH3CN (containing formic acid, 0.1 %, v/v) in water (containing ammonium formate, 10 mM and formic acid, 0.1 %, v/v) from 15% to 95%. […]

[3] = test system: Jurkat cells; test: Total intracellular ROS (CM-DCFH-DA), Jurkat; format: cell-based, human; settings: 1 h
Experimental: Monitoring total intracellular ROS (tROS)
A2780 cells were seeded in RPMI 1640 medium containing 5% FBS, 1% L-glutamine and 1% penicillin/streptomycin in a 24-well microtiter plate (total volume 0.5 mL) at a density of 200 cells/µL one day before the experiment. On the day of the experiment, the cells were washed twice with DPBS buffer and the medium was replaced with HBSS (Hanks' Balanced Salt solution, 500 μL). CM-DCFH-DA (5-(6-)chloromethyl-2',7'- dichlorodihydrofluorescein diacetate, Thermo- Fisher) solution (0.1 mM in DMSO, 5 μL) was added (final concentration 1 µM) and the cells were incubated in the dark chamber filled with CO2 (5%) at 37 °C for 15 min. […] Finally, the fluorescence of live cells (λex = 488 nm, λem = 525 nm) in the suspensions was determined by using flow cytometry (Figure 4A, 5C).
Intracellular ROS release in Jurkat cells was monitored analogously (Figure S58).
Figure S58. […] OY-axis “Fluorescence”: the increase of the mean fluorescence (λex = 488 […]

[4] = Solubility in RPMI 1640 medium, precipitation seen by bright field optical microscopy; settings: DMSO 1%
Experimental: The latter medium was selected, since we used it for the cellular assays. […] Then we monitored the formation of (not detectable in the previous experiment) aggregated species in prodrug solutions that appeared transparent (concentrations < 50 µM) by using dynamic light scattering. […]
Solubility of drugs in aqueous buffers
Observing prodrug precipitation by using bright field optical microscopy […]
glutamine (1 %), and penicillin/streptomycin (1 %) was filled into 96-well microtiter plates (100 µL for each well) and compounds in DMSO stock solution (1 µL) were added. Each well was monitored by using bright field optical microscopy both immediately after […]

Compound	efficacy of cellular uptake relative to reference NAAF prodrug [1]	time of formation of the hydrolyzed form in aqueous neutral solution [2] [h]	total ROS (tROS) vs background [3]	Solubility ([4]; 48 h incubation in RPMI 1640, FBS 5%, first signs of precipitation) [µM]	first signs of precipitation ([4]; immediately after dilution in RPMI 1640, FBS 5%) [µM]
CCOC(=O)CCCCCn1cc(CN(C(=O)OCc2ccc(B3OC(C)(C)C(C)(C)O3)cc2)[c-]2cccc2)nn1.[Fe+2].c1cc[cH-]c1 [compound 1]	ca. 50%	< 2	–	–	–
CC1(C)OB(c2ccc(COC(=O)N(Cc3cn(Cc4ccc(Cn5cc(Cc6ccccc6)nn5)cc4)nn3)[c-]3cccc3)cc2)OC1(C)C.[Fe+2].c1cc[cH-]c1 [2c]	–	–	significantly higher than its background levels	30	30
